Assays:
motilité = experiment: motility test; assay type: in vivo, souris et/ou des chiens; details: dose de 13,5 MEq par kilo (carbonate de lithium: dose correspondante)
[1] = tested on: convulsions produites par un électrochoc; experiment: convulsions produced by electroshock; assay type: in vivo, souris et/ou des chiens; details: dose de 5 MEq par kilo
[2] = acute toxicity (DL50), oral route; details: mouse, in vivo, souris, par voie orale
Description: L'invention concerne enfin les médicaments qui contiennent au moins un produit de formule (1). Il a été trouvé en effet que les produits de formule (1) avaient une toxicité faible (la DL50 pour la souris et pour le produit de formule 1 dans lequel R est CH3 étant environ 3 200 mg/kg par voie orale) et une activité pharmacologique qui peut s'exprimer comme suit : • - diminution et/ou blocage des systèmes dopaminer- giques, • - augmentation, au moins transitoire, de la systhè- se de la sérotonine, • - pouvoir analgésique, les conséquences de ces actions se retrouvant dans les constatations suivantes : • - diminution de l'agressivité, • - diminution de la motilité et de la curiosité, • - protection contre les convulsions.

[3] = tested on: agressivité induite par des chocs électriques; experiment: aggressiveness induced by electric shocks; assay type: in vivo, souris et/ou des chiens
[4] = tested on: systèmes dopaminer- gines; experiment: test evaluating blockade of the dopaminergic systems; assay type: in vivo, souris et/ou des chiens
sécrétion de sérotonine = experiment: test on serotonin secretion; assay type: in vivo, souris et/ou des chiens
test plaque chaude = experiment: comparative analgesic activity (hot plate test); assay type: in vivo, souris et/ou des chiens; details: dose de 13 MEq par kilo

SMILES	la motilité baisse (motilité) [%]	protection des sujets [1] [%]	LD50 [2] [mg/kg]	dose active [3] [MEq par kilo]	dose active à 100 % [4]	dose active après 24 heures (sécrétion de sérotonine)	protection (test plaque chaude) [%]	dose active à 50 % [4]
CNC(=O)OP(=O)(O)O [N-méthyl-carbamoylphosphate de lithium]	36	40	~3200	10	6,75 MEq par kilo	6,75 MEq par kilo	42	
O=C(O)O [carbonate de lithium, reference compound]	12					10 MEq par kilo	27	10,115 MEq par kilo

Source: patent EP0129628A1, “Medicine, especially useful in psychiatry, which uses as the active constituent a lithium N-alkylcarbamoyl phosphate” (Richard, Marcel, priority 1983, dated 1985)
